Assay results published in patent EP3009422A1, “Photo-switchable sulfonylureas and their uses” (Ludwig-Maximilians-Universität München, priority 2014, dated 2016).

Assays:
mouse islets = assay: Calcium imaging (fMCI) of beta cell activity in intact mouse islets; assay type: cell-based; details: mouse islets
Experimental: Male and female CD1 and C57BL6 mice (8-20 weeks) were maintained in a specific pathogen-free facility under a 12h light-dark cycle with ad libitum access to water and food. Animals were euthanized using a schedule-1 method and pancreatic islets isolated by collagenase digestion. All procedures were regulated by the Home Office according to the Animals (Scientific Procedures) Act 1986 of the United Kingdom (PPL 70/7349), and study approval granted by the Animal Welfare and Ethical Review Body (AWERB) of Imperial College. No randomization was used for animal experimentation, since mice were only used as tissue donors.
Islets were loaded for 30-45 min in fluo2-AM (10 µM) or for 2-5 min with X-Rhod 1 (5 µM) diluted with a mixture of DMSO (0.01%, wt/vol) and pluronic acid (0.001%, wt/vol; all Invitrogen) in a bicarbonate buffer containing in mM: 120 NaCl, 4.8 KCl, 1.25 NaH2PO4, 24 NaHCO3, 2.5 CaCl2, 1.2 MgCl2 and 5 D-glucose. fMCI was performed using a Zeiss Axiovert M200 fitted with a Nipkow spinning-disk head (Yokogawa CSU-10) and a 10x/0.3NA objective adjusted for chromatic aberration (EC Plan-Neofluar, Zeiss). Pulsed excitation (frequency = 0.5 Hz; exposure = 263 ms) was delivered at 491 nm and emitted signals recorded at 500-550 nm with a back-illuminated 16-bit EM-CCD camera (ImageEM 9100-13; Hamamatsu). During recording, islets were maintained at 35-36 °C in the presence of 50 µM JB253 using a custom-manufactured perfusion and heating system (Digital Pixel). Drugs were introduced through the perfusion system at the indicated time points and concentrations. Violet light was delivered by a 405 ± 5 nm laser coupled to the side port of the microscope and configured to fill the back of the objective with light using an Optospot (Cairn Research). Blue light was delivered using 440 ± 5 nm and 491 ± 5 nm diode lasers controlled by a laser merge module (Spectral Applied Research) to allow simultaneous exposure and acquisition. For single islet targeting, a 473 ± 5 nm laser was coupled to a custom-manufactured dichroic array (Cairn Research), allowing user-directed steering of a collimated laser spot across the field of view. Signals were normalized using F/Fmin where F is fluorescence at a given timepoint and Fmin is minimum fluorescence.
Data distribution was determined using the D'Agostino omnibus test. Non-multifactorial pairwise comparisons were made using either the Student's t-test. Interactions between multiple treatments were assessed using one-way ANOVA followed by pairwise comparisons using Bonferroni's post-hoc test. Effect sizes in islets/cells are usually sufficiently large that multiple animals/independent replication is a more important determinant of power in studies requiring statistical comparison. Non-linear regression was used to calculate the EC50 of normalized and log-transformed concentration-response curves. For [3H]-glibenclamide displacement assays, data points were fitted to the Hill equation before calculation of the halfmax value. In all cases, analysis was performed using Graphpad Prism (Graphpad Software) and IgorPro, and experimental numbers reported as independent biological replicates. No animals or data were excluded from the analysis and results were considered significant at P<0.05.

KATP channels = target: T1, KATP channels (Rattus norvegicus, UniProt Q09429); assay: Whole cell patch clamp of HEK293t cells transfected with Kir6.2 and SUR1; assay type: cell-based; details: for Difference (%) in current change between first and last switch / ΔI [pA] first switch / ΔI [pA] last switch: 400 nm; for reversal potential: n = 5 recordings; for % block: versus 500 µM tolbutamide in the same experiment, n = 3
T1 construct: expressed in transfected cells; host or cells: HEK293t (Leibniz-Institut DSMZ: #305)
Experimental: HEK293t cells (obtained from Leibniz-Institut DSMZ: #305) were incubated in Dulbecco's Modified Eagle Medium (DMEM) + 10% FBS and used for electrophysiological recordings 24-48 hrs following Lipofectamine transfection with plasmids encoding Kir6.2 (Genbank D50581), rat SUR1 (Genbank L40624) and GFP. Whole cell patch clamp experiments were performed using a standard electrophysiology setup equipped with a HEKA Patch Clamp EPC10 USB amplifier and PatchMaster software (HEKA Electronik). Micropipettes were generated from "Science Products GB200-F-8P with filament" pipettes using a vertical puller. Resistance varied between 5-7 MΩ. Bath solution contained in mM: 3 KCl, 118 NaCl, 25 NaHCO3, 2 CaCl2, 1 MgCl2, 10 HEPES (NaOH to pH 7.4). Pipette solution contained in mM: 90 K-gluconate, 10 NaCl, 10 KCl, 1 MgCl2, 10 EGTA, 60 HEPES (KOH to pH 7.3), and the holding potential was -60 mV. Illumination during electrophysiology and UV/Vis experiments was provided by a TILL Photonics Polychrome 5000 monochromator.

[1] = four dark/400 nm cycles, single cell, ± SEM
[2] = λ 400 nm, 50 µM JB253, ± SD, n = 3 recordings
[3] = λ 420 nm, 50 µM JB253, ± SD, n = 3 recordings
[4] = λ 440 nm, 50 µM JB253, ± SD, n = 3 recordings
[5] = λ 460 nm, 50 µM JB253, ± SD, n = 3 recordings
[6] = λ 480 nm, 50 µM JB253, ± SD, n = 3 recordings
[7] = λ 500 nm, 50 µM JB253, ± SD, n = 3 recordings

T1 sequence (Q09429 whole entry): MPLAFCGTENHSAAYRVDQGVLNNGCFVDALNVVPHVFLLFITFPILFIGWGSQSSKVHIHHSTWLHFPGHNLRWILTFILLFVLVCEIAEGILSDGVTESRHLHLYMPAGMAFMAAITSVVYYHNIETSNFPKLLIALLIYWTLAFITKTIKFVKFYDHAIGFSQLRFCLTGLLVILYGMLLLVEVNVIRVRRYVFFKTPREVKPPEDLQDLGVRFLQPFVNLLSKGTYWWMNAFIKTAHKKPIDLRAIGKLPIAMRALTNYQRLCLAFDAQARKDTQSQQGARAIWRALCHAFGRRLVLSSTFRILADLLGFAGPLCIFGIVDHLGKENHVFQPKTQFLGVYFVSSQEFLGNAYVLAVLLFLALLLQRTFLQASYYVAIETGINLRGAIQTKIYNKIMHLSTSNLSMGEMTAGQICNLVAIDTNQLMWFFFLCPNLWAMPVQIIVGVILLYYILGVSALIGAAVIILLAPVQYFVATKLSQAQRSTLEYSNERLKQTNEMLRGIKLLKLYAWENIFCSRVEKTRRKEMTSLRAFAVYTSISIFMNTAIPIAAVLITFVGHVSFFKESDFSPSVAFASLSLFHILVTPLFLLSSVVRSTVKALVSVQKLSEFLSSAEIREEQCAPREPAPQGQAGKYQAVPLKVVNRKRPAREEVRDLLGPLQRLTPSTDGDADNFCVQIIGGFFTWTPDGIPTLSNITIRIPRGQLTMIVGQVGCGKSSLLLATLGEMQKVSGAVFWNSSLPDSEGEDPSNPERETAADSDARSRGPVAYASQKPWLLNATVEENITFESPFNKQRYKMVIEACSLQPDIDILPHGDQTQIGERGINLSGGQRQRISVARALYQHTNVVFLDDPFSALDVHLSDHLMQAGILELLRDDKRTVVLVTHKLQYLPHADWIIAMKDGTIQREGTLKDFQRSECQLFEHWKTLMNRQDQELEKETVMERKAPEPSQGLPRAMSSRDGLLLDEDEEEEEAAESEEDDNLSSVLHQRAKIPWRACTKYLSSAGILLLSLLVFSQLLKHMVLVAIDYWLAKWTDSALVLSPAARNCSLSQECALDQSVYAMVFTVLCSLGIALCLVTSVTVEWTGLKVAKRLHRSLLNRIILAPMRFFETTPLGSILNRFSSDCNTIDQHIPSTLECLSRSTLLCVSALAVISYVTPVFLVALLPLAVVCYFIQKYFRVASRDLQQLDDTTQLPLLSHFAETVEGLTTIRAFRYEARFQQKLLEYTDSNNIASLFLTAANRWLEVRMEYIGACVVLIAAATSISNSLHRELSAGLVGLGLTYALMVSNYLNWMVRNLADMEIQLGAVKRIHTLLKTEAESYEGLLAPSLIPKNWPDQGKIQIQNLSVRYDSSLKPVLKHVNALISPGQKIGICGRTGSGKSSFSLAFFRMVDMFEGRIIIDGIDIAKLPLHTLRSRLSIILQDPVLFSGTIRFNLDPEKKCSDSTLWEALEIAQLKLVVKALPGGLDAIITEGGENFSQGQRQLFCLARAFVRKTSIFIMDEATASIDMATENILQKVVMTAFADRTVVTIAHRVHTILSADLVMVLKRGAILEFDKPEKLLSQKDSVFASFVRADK
T1 sequence (Q61743 whole entry partner): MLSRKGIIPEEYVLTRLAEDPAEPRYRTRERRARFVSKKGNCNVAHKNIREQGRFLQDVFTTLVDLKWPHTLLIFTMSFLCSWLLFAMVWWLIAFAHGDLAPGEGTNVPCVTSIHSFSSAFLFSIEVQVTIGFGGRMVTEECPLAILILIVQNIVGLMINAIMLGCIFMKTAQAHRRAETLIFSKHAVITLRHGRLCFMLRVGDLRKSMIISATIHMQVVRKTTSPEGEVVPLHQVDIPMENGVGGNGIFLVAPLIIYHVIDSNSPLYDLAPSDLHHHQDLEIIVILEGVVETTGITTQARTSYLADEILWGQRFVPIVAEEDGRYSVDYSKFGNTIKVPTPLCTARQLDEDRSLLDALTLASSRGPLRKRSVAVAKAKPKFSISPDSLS

CCN(CC)c1ccc(/N=N/c2ccc(S(=O)(=O)NC(=O)NC3CCCCC3)cc2)cc1 [JB253, (E)-N-(cyclohexylcarbamoyl)-4-((4-(diethylamino)phenyl)diazenyl)benzenesulfonamide]
fluo-2-loaded population responding to illumination with synchronous Ca^2+ rises (mouse islets; 50 µM JB253, 405 nm laser, n = 10 recordings): 54%
responsive X-Rhod-1-loaded cells (mouse islets; 50 µM JB253, 405 nm, n = 3 recordings): 63%
stimulation of [Ca^2+]i (mouse islets; concentration-response, dark): largely ineffective
concentration-response curve for glimepiride in the presence of trans-JB253 (mouse islets; saturating concentration (100 µM) of trans-JB253, dark): right-shifted
Difference (%) in current change between first and last switch (KATP channels; experiment 1, 12 cycles): 34.4%
ΔI [pA] first switch (KATP channels; experiment 1, 12 cycles): 136.5 pA
ΔI [pA] last switch (KATP channels; experiment 1, 12 cycles): 89.5 pA
Difference (%) in current change between first and last switch (KATP channels; experiment 2, 9 cycles): 3.4%
ΔI [pA] first switch (KATP channels; experiment 2, 9 cycles): 438.8 pA
ΔI [pA] last switch (KATP channels; experiment 2, 9 cycles): 423.8 pA
Difference (%) in current change between first and last switch (KATP channels; experiment 3, 5 cycles): 19.5%
ΔI [pA] first switch (KATP channels; experiment 3, 5 cycles): 200.0 pA
ΔI [pA] last switch (KATP channels; experiment 3, 5 cycles): 161.0 pA
Difference (%) in current change between first and last switch (KATP channels; experiment 4, 4 cycles): 2.1%
ΔI [pA] first switch (KATP channels; experiment 4, 4 cycles): 521 pA
ΔI [pA] last switch (KATP channels; experiment 4, 4 cycles): 510 pA
wavelength of maximal photoblock of KATP channels (KATP channels; HEK293t Kir6.2/SUR1): 460 nm
photoswitching of K^+ currents at wavelengths > 560 nm (KATP channels; HEK293t Kir6.2/SUR1, holding potential -60 mV, n = 3 recordings): unable to photoswitch
τon (KATP channels; block upon exposure to 400 nm): 400 ms
K^+ current amplitude (KATP channels; dark state, 50 µM JB253, a fraction of the effect of 500 µM tolbutamide): partly reduced
reversal potential (KATP channels; dark, ± SEM): -90.0 ± 1.8 mV
ΔI (KATP channels; [1]): 504.8±6.9 pA
τoff (KATP channels; [1]): 1472 ± 75 ms
τon (KATP channels; [1]): 477 ± 26 ms
reversal potential (KATP channels; illuminated, ± SEM): -87.8 ± 1.6 mV
block relative to that recorded using 500 µM tolbutamide (KATP channels; illumination with wavelengths between 400-500 nm, 50 µM JB253): 45-72%
difference in ΔI [pA] between first and last switch (KATP channels; repeated dark/400 nm cycles, mean of all experiments): 14.9 ± 7.6%
τoff (KATP channels; thermal relaxation after light source shut off (400 nm)): 1500 ms
ΔI (KATP channels; λ 400 nm, 50 µM JB253, single representative experiment): 216 pA
% block (KATP channels; λ 400 nm, 50 µM JB253, ± SD): 44.0±29.6%
τoff (KATP channels; [2]): 2758 ± 745 ms
τon (KATP channels; [2]): 1176 ± 385 ms
ΔI (KATP channels; λ 420 nm, 50 µM JB253, single representative experiment): 492 pA
% block (KATP channels; λ 420 nm, 50 µM JB253, ± SD): 69.4±51.1%
τoff (KATP channels; [3]): 2209 ± 482 ms
τon (KATP channels; [3]): 1309 ± 438 ms
ΔI (KATP channels; λ 440 nm, 50 µM JB253, single representative experiment): 440 pA
% block (KATP channels; λ 440 nm, 50 µM JB253, ± SD): 70.0±44.3%
τoff (KATP channels; [4]): 2295 ± 397 ms
τon (KATP channels; [4]): 1246 ± 421 ms
ΔI (KATP channels; λ 460 nm, 50 µM JB253, single representative experiment): 481 pA
% block (KATP channels; λ 460 nm, 50 µM JB253, ± SD): 72.8±48.1%
τoff (KATP channels; [5]): 1940 ± 322 ms
τon (KATP channels; [5]): 1181 ± 447 ms
ΔI (KATP channels; λ 480 nm, 50 µM JB253, single representative experiment): 487 pA
% block (KATP channels; λ 480 nm, 50 µM JB253, ± SD): 72.4±49.0%
τoff (KATP channels; [6]): 2183 ± 422 ms
τon (KATP channels; [6]): 1163 ± 434 ms
ΔI (KATP channels; λ 500 nm, 50 µM JB253, single representative experiment): 482 pA
% block (KATP channels; λ 500 nm, 50 µM JB253, ± SD): 70.2±49.5%
τoff (KATP channels; [7]): 2002 ± 354 ms
τon (KATP channels; [7]): 1244 ± 462 ms
